# Columns and labels:
# antigen 85C (Ag85C) = molecular target: T1, antigen 85C (Ag85C) (Mycobacterium tuberculosis, UniProt P9WQN9); assay: […]-HSQC NMR titration (chemical shift perturbation); type: binding
# T1 construct: gene fbpC
# [1] = tested on: T2, Mycobacterium smegmatis Msmeg; assay: microbe, parasite or virus in culture; design: species or system Mycobacterium smegmatis DSM 43465; broth microdilution MIC in CAMHB, MTT staining, visual read-out; conditions: Mycolicibacterium smegmatis; read-out: Msmeg growth inhibition [MIC ug/mL]
# T2 construct: DSM 43465
# Protocol: The BEI parameter is conceptually very similar to previously published ligand efficiency (LE) parameters that normalize logarithmic affinity by non-hydrogen atom count rather than molecular weight ^5-7. Experimental Section Antibacterial in vitro assay for M. smegmatis. For MIC assays according to the Clinical and Laboratory Standards Institute M. smegmatis (strain DSM 43465) cells were grown in CAMHB medium at 35°C to an OD625nm higher than 0.09 followed by a dilution in medium to reach OD625nm of […] (“0.5 McFarland Standard”). These cell suspensions were brought to approximately 1 * 10^6 CFU/ml which corresponds to a 1:200 dilution. Resulting cell inoculi were diluted 1:1 with medium containing increasing concentrations of test compound as indicated in 96 well plates in duplicates (cell titer and purity of inoculum was checked in parallel by plating out on CAMHB-agar). After 24 – 48 h incubation MTT-solution (5 mg/ml thiaolyl blue tetrazoliumbromide) were added to stain wells with living cells and plates were photographed ^8. Wells with the lowest concentration of compound that were free of the dark brown color of bacteria were considered MICs. Ampicillin was used as a positive control antibiotic. Learning from the rich literature of potent in vitro enzyme inhibitors that were discarded due to the lack of antibacterial activity, we assayed the 31 selected FRIGATE hits for antibacterial activity prior to in vitro follow-up work. We utilized the less pathogenic and faster growing Mtb model organism Msmeg for primary growth inhibition testing.
# T1 sequence (P9WQN9 46-340): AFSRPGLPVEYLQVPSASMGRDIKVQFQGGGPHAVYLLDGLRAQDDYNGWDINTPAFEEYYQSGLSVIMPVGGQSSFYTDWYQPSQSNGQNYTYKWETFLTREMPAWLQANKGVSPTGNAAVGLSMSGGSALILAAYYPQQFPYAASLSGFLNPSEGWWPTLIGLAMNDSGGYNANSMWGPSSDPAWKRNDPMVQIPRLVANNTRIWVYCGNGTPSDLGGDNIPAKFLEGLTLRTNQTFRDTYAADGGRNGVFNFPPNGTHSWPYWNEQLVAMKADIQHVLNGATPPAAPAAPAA
Compound,Kd (antigen 85C (Ag85C)) [µM],MIC [1] [µg/mL]
"Cc1cccn2c(=O)c3cc(C(=O)NCCCn4ccnc4)n(Cc4ccccc4)c3nc12 [compound 1, N-[3-(1H-imidazol-1-yl)propyl]-1-benzyl-9-methyl-4-oxo-1,4-dihydropyrido[1,2-a]pyrrolo[2,3-d]pyrimidine-2-carboxamide]",177,< 50
"CC1=C(C#N)c2nc(N)c(C#N)cc2C1=Cc1ccc(-c2ccccc2C(=O)O)o1 [compound 2, 2]",–,> 200
"OC(CNC1CCc2ccccc21)COc1ccc(-c2csnn2)cc1 (stereo not shown) [compound 3, 3]",–,100

# — publication PMC3229595, “Discovery of Novel MDR-Mycobacterium tuberculosis Inhibitor by New FRIGATE Computational Screen” (PLoS ONE, 2011)
